Tested on: Human breast carcinoma MDA-MB 231 s.c. solid tumors
Test: Human breast carcinoma MDA-MB 231 s.c. solid tumors in nude mice (Example 29)
Assay type: in vivo, balb/c nu/nu mice
Details: for Tumor weight after treatment, Average (SEM): 30 mg/kg days 1, 2, 9, 10
Protocol: balb/c mice aged 5 to 6 weeks were purchased from Charles River Canada Inc. The animals were kept 5 per cage with an air filter cover under light (12 light/dark cycle, light on at 6 H00) and temperature (22° C.±1° C.)-controlled environment. All manipulations of animals were performed under a sterilized laminar hood. The animals had ad libitum access to Purina mouse chow (Pro Lab PMH 4018, Trademark of Agway, Syracuse, N.Y.) and water. These animal studies were conducted according to the “Guidelines for Care and Use of Experimental Animals”. Tumor Cell Culture: Human breast cancer cells MDA-MB 231 were cultured in the appropriated culture medium. The cells were harvested in their logarithmic growth phase for the preparation of tumor implantation. Tumor Implantation: Human tumor or myeloma cells (2.5 to 5.0×10^6 cells) were implanted subcutaneously in 0.200 mL of medium containing 30% Matrigel on the two flanks of balb/c nu/nu mice through a 1 to 2 cm long 20-gauge needle. Treatments: 2 to 3 weeks after tumor cell implantation, animals that developed s.c. solid tumors were selected and divided into several homogeneous groups (n=5 animals per group or dose) with respect to tumor size (0.5 to 0.8 cm in diameter). The treatments were performed next day. The animals were dosed with the following dosing solutions. Control: (0.9%, NaCl) Compositions:
Subcutaneous solid tumor measurements were performed on the day of first injection and at 3- to 4-day intervals thereafter. The two largest perpendicular diameters of each tumor were measured with calipers and tumor sizes were estimated using the formula: TV=L×W/2 where TV: tumor volume; L: length; W: width. The body weights of animals were also noted.
The experiment was performed employing the procedures described in Example 28, using the following compositions for treatment:
non-formulated Bendamustine, (30 mg/kg)
Bendamustine (30 mg/kg) in 20% SBECD, 1% LMWP (formulated BM)
The treatment was performed on days 1, 2, 9, and 10.

In the case of `Cn1c(CCCC(=O)O)nc2cc(N(CCCl)CCCl)ccc21` [BM, 4-[5-[bis(2-chloroethyl)amino]-1-methylbenzimidazol-2-yl]butanoic acid], the “Tumor weight after treatment, Average (SEM)” value (from here on “Tumor weight … (SEM)”) (day 0) was 0.139 (0.013) g, the “Tumor weight … (SEM)” value (day 2) was 0.178 (0.027) g and the “Tumor weight … (SEM)” value (day 4) was 0.202 (0.039) g. The “Tumor weight … (SEM)” value (day 6) was 0.259 (0.049) g, the “Tumor weight … (SEM)” value (day 8) was 0.295 (0.054) g and the “Tumor weight … (SEM)” value (day 10) was 0.319 (0.044) g. The “Tumor weight … (SEM)” value (day 12) was 0.361 (0.050) g, the “Tumor weight … (SEM)” value (day 14) was 0.417 (0.054) g and the “Tumor weight … (SEM)” value (day 16) was 0.487 (0.067) g. For the same compound, the “Inhibition % vs control (on day 16)” value (30 mg/kg, Day 1, 2, 9, 10) was 38.3% and the “Tumor weight on day 16” value (30 mg/kg, Day 1, 2, 9, 10, right flank tumors only) was 0.487 ± 0.067 g.

Reference: US8703964B2, “Bendamustine cyclopolysaccharide compositions” (Supratek Pharma Inc., priority 2009, dated 2014)
